Measurements reported in patent US20250248979A1, “NOVEL GPX4 INHIBITORS AND USES THEREOF” (THE TRUSTEES OF COLUMBIA UNIVERSITY IN THE CITY OF NEW YORK, priority 2022, published 2025).
Residue numbers refer to the chain shown, from its start. Like-named read-outs stand apart in the source and are kept apart here.

Legend:
GPX4 = biological target: T1, GPX4 (Homo sapiens, UniProt P36969); test: Western blot assay of GPX4 protein degradation; type: cell-based
T1 sequence (P36969 1-170 isoform P36969-2): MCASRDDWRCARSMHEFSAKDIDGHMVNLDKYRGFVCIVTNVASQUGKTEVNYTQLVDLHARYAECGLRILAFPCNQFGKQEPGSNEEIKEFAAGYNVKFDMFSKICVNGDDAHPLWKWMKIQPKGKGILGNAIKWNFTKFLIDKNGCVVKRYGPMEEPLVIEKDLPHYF
Method: HT-1080 cells were seeded at 250,000 cells per well in a 6-well plate and incubated 37° C. with 5% CO2 overnight. The next day, cells were treated with vehicle alone or the compound of interest with 10 μM Fer-1 for 10 hours. Compounds were dissolved in DMSO. Cells were harvested with trypsin, washed with cold PBS, and lysed in RIPA buffer containing complete Protease Inhibitor Cocktail mini tablets (Roche) on ice for 30 minutes. Samples were then centrifuged at 14,000×g for 15 minutes at 4° C. Supernatants were collected and protein concentrations were determined using the BCA Protein Assay Kit (Pierce). Concentrations were normalized across samples and mixed with 6×SDS-PAGE Sample Loading Buffer (G Biosciences). Protein samples were then loaded on a NuPAGE Novex 4-12% Bis-Tris protein gel and run in MES buffer (Invitrogen) at 100V for 10 minutes then 200V for an additional 30 minutes. Proteins were transferred to a PVDF membrane (Invitrogen) using the iBlot 2 Gel Transfer Device. The membrane was washed with PBS, then blocked using Intercept Blocking Buffer (LICOR) for one hour. The membrane was then incubated with the primary antibodies in a 1:1 solution of blocking buffer and PBST (PBS+0.1% Tween 20) overnight at 4° C. […] The blot was imaged using a LI-COR Odyssey CLx IR scanner and results were quantified in ImageJ and GraphPad Prism 9.

GPX4^U46C = biological target: T2, GPX4^U46C (Homo sapiens, UniProt P36969, U73C); test: Protein crystallography of inhibitor complexes
T2 construct: made in house; host or cells: E. coli BL21-Gold (DE3)
T2 sequence (P36969 1-170 isoform P36969-2 U46C): T1 sequence (P36969 1-170 isoform P36969-2) with U46C
Method: GPX4^U46C was pre-incubated with covalent inhibitors before crystallization using conditions that were optimized with monitoring on intact protein MALDI MS analysis. 40 μM GPX4^U46C was incubated with 375 μM LOC1886 in the reaction buffer (20 mM Tris pH 9.0, 100 mM NaCl, 2 mM TCEP, 1.5% DMSO) at 37° C. for 4 hours and then 4° C. overnight. Covalent binding was confirmed using intact protein MALDI MS analysis. The protein-inhibitor complex was then exchanged into crystallization buffer (20 mM Tris, pH 8.0, 300 mM NaCl, 3 mM TCEP) and concentrated to 5 mg/mL.
Protein samples of GPX4^U46C in complex with LOC1886 were initially screened at the High-Throughput Crystallization Screening Center of the Hauptman-Woodward Medical Research Institute (HWI) (hwi.buffalo.edu/high-throughput-crystallization-center/) (Luft et al. 2003). The most promising crystal hits were reproduced using under oil micro batch method at 23° C. […]
GPX4^U46C with LOC1886 diffracted X-ray at the beamline NE-CAT24-ID-C to resolution 1.93 Å. […] The structure of each protein was determined by molecular replacement method using MOLREP program and the crystal structures of GPX4^U46C (PDB id: 7L8K) and GPX4^U46C-R152H (PDB id: 7L8L) were both used as search models for structure determination (Vagin and Teplyakov, 2010). […]

in vitro [1] = settings: human, plasma
in vitro [2] = settings: mouse, plasma
GPX1 = biological target: T3, GPX1 (Homo sapiens, UniProt P07203); test: GPX1 activity assay in cell lysates; type: biochemical; set-up: endogenous in cells; host or cells: A-673 cell lysate
T3 sequence (P07203 1-203): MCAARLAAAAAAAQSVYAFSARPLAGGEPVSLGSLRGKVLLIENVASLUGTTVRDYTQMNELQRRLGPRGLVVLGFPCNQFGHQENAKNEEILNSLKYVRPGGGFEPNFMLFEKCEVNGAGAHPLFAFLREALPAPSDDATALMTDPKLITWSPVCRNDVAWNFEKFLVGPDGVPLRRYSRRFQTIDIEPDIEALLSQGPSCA
Method: Determination of GPX1 activity in cell lysates was performed as previously described by Stolwijk et al. with some modifications (Stolwijk et al. 2020). GPX1 and GPX4 activity were not evaluated simultaneously in the same assay as in the published protocol to maximize signal-to-noise with the GPX1 substrate. Again, NADPH consumption, as determined by the reduction in the absorbance at 340 nm, over time was monitored as a proxy for GPX1 activity, which, like GPX4, reduces its substrates using glutathione as a reductant. 100 μM hydrogen peroxide was selected as the GPX1 substrate in this assay. A-673 cell lysates and assay setup were performed as above for the GPX4 activity assay. All conditions were tested in triplicate. Buffer-only controls and controls without substrate containing only Milli-Q water vehicle were performed to assess background and baseline signal. GPX1 activity was calculated as reported by Stolwijk et al. 2020 and results were analyzed in GraphPad Prism 9.

SU-DHL-2 = test: Cytotoxicity in DLBCL cells, SU-DHL-2; type: cell-based, human; settings: for IC50: SU-DHL-2
SU-DHL-7 = test: Cytotoxicity in DLBCL cells, SU-DHL-7; type: cell-based, human; settings: for IC50: SU-DHL-7
[3] = Fer-1 1.0 μM, read-out: IC50 (μM) with Fer-1

SMILES	binding site in co-crystal structure (GPX4^U46C)	half-life (in vitro [1])	half-life (in vitro [2])	Plasma Stability t1/2 (min) human	Selectivity^a (fold) (SU-DHL-2)	IC50 (SU-DHL-2; 24 h, read-out: IC50)	IC50 (SU-DHL-2; [3])	Selectivity^a (fold) (SU-DHL-7)	IC50 (SU-DHL-7; 24 h, read-out: IC50)	IC50 (SU-DHL-7; [3])	also measured
COc1cccc2[nH]c(C(=O)n3ccnc3)cc12 [LOC1886, reference compound]	bound to allosteric sites C66 and C10 of GPX4^U46C	10.8 min	< 2 min	–	–	–	–	–	–	–	GPX4 protein degradation, result in words (GPX4; HT-1080 cells): inhibits and degrades GPX4
CC(C)(COC(=O)CCl)NC(=O)c1cc2ccc(Br)cc2[nH]1 [QW-156]	–	–	–	–	–	–	–	–	–	–	GPX1 inhibition (GPX1; 200 μM): approximately 30%
Cn1nc(C(=O)NC(C)(C)COC(=O)CCl)c2ccc(Br)cc21 [QW-314]	covalently binds to the mutant cysteine in the U46 residue	2.3 min	40.7 min	–	–	–	–	–	–	–	GPX4 protein degradation, result in words (GPX4): induces GPX4 protein degradation in HT-1080 cells; GPX1 activity assay effect (GPX1): no inhibitory effect; selectivity for GPX4 over GPX1, result in words (GPX1): high selectivity for GPX4 over GPX1
COc1ccc(-c2ccc3c(C(=O)NC(C)(C)COC(=O)CCl)nn(C)c3c2)cc1Cl [QW-446]	–	–	–	7.5 min	–	–	–	–	–	–	–
CC(C)(COC(=O)CCl)NC(=O)c1nn(Cc2cc(Cl)cc(Cl)c2)c2cc(-c3ccc(N4CCOCC4)c(Cl)c3)ccc12 [QW-852]	–	–	–	–	>1000 fold	0.002 µM	4.95 µM	>1000 fold	0.031 µM	> 1000 µM	–
COC(=O)c1ccc([C@@H]2c3[nH]c4ccccc4c3C[C@@H](C(=O)OC)N2C(=O)CCl)cc1 [RSL3, reference compound]	–	–	–	>1000 min	8 fold	0.18 µM	1.5 µM	6 fold	0.17 µM	1 µM	–
